Laboratory results taken from publication PMC3948622, “Docking, Synthesis and Antiproliferative Activity of N-Acylhydrazone Derivatives Designed as Combretastatin A4 Analogues” (PLoS ONE, 2014).
≈ marks a conversion by molar mass, not a printed value. Where two headings read alike, the source gives them in different places.

What was measured:
[1] = test system: HL-60 (human leukemia); experiment: In vitro antiproliferative MTT assay, HL-60; assay type: cell-based; conditions: for IC50: Homo sapiens, HL-60
Description: (§1) The antiproliferative activity of compounds 5a–r was determined based on an MTT assay and using CA-4 as standard against the tumor cell lines: HL-60 (human leukemia), SF-295 (human glioblastoma), MDA-MB435 (melanoma), PC3M (prostate cancer), OVCAR-8 (ovaries adenocarcinoma), NCI-H258M (pulmonary bronchio-alveolar carcinoma) and HCT-8 (adenocarcinoma ileocecal) (Table 2). To determine the selectivity index of compounds 5a–r, their antiproliferative profile was also evaluated toward human lymphocytes (Table 2).
(§2) Compounds (0.009–5 µg/mL) were tested for cytotoxic activity against selected cancer cell lines: SF-295 (glioblastoma), HCT-8 (colon), MDAMB-435 (melanoma), HL60 (leukemia), PC3M (prostate cancer), OVCAR-8 (ovaries adenocarcinoma) and NCI-H258M (pulmonary bronchio-alveolar carcinoma). All cell lines were kindly obtained from the National Cancer Institute (Bethesda, MD, USA).Tumor cell proliferation was quantified through the ability of living cells to reduce the yellow dye 3-(4,5-dimethyl-2-thiazolyl)-2,5-diphenyl-2H-tetrazolium bromide (MTT, Sigma Aldrich)) to a purple formazan product and absorbance was measured at 595 nm (DTX-880, Beckman Coulter).

[2] = test system: human lymphocytes; experiment: In vitro antiproliferative assay, human lymphocytes; assay type: cell-based; conditions: Lymphocyte, Table 2
Description: as §1
To investigate the selective cytotoxic activity of the N-acylhydrazones derivatives (5a–r), their antiproliferative potency was also assessed toward human lymphocytes and the results were compared to the data from CA-4 ([…]). The selectivity index (SI), which was the IC50 for human lymphocytes/IC50 for cancer cell lines after treatment with CA-4 and N-acylhydrazones (5a–r), was calculated, as depicted in Table 3. […] The best comparative selectivity indices (CA-4 vs 5b) were obtained from the SF-295 (SI = 13), MDA-MB435 (SI = 42) and NCI-H258M (SI = 9.5) tumor cell lines, and the worst results were found for OVCAR-8 (SI = 0.5).

[3] = test system: NCI-H358M (pulmonary bronchio-alveolar carcinoma); experiment: In vitro antiproliferative MTT assay, NCI-H358M; assay type: cell-based
[4] = test system: SF-295 (human glioblastoma); experiment: In vitro antiproliferative MTT assay, SF-295; assay type: cell-based; conditions: for IC50: Homo sapiens, SF-295, read-out: IC50 SF295
Description: as §1, §2

[5] = test system: OVCAR-8 (ovaries adenocarcinoma); experiment: In vitro antiproliferative MTT assay, OVCAR-8; assay type: cell-based
Description: as §1, §2

[6] = test system: PC3M (prostate cancer); experiment: In vitro antiproliferative MTT assay, PC3M; assay type: cell-based
Description: as §1, §2

[7] = test system: MDA-MB435 (melanoma); experiment: In vitro antiproliferative MTT assay, MDA-MB435; assay type: cell-based; conditions: Homo sapiens, MDA-MB-435
[8] = Aqueous solubility assay by ultraviolet spectroscopy; assay type: physicochemical; conditions: water (saturated aqueous solution), thermodynamic from solid, 2 hours at 37°C, read-out: Aq. Solubility
Description: Ultraviolet spectroscopy was performed using Femto spectrophotometer. The wavelength used in solubility assay was determined by the -λ max characteristic of each compound. Spectra were analyzed in Femtoscan software. Mass spectrometry was obtained by positive ionization at Bruker AmaZon SL and data analyzed in Compass 1.3.SR2 software.
The solubility assay was performed considering the absorptivity of compounds in ultraviolet spectroscopy as described by Schneider and coworkers. The assay wavelength was determined by the λ max characteristic of each compound.
Saturated aqueous solutions were prepared (0.01 mg/mL) and were kept under stirring for 2 hours at 37°C. The supernatant was filtered in 0,45 µm filters and transferred to a quartz cuvette (10 mm) to spectra acquisition.
Solubility was determined by linear regression using as graph plots, solutions prepared by dilutions of the original solution in methanol. The data were obtained in triplicates and the mean values were used to the graph plots. The correlation coefficient (R^2) values were between 0.9972 and 0.9999.

[9] = test system: MDA-MB435 (melanoma); experiment: In vitro antiproliferative MTT assay, MDA-MB435; assay type: cell-based; conditions: IC50 for human lymphocytes/IC50 for cancer cell line
Description: as §1, §2

[10] = test system: HCT-8 (adenocarcinoma ileocecal); experiment: In vitro antiproliferative MTT assay, HCT-8; assay type: cell-based; conditions: for IC50: Homo sapiens, HCT-8
Description: as §1, §2

[11] = test system: tumor cell lines; experiment: In vitro antiproliferative MTT assay, tumor cell lines (summary over the panel); assay type: cell-based; conditions: HL-60, SF296, HCT-8 and MDA-MB435 tumor cells
Description: as §1, §2

[12] = IC50 for human lymphocytes/IC50 for cancer cell line

Row | IC50 ([1]; Table 4) [nM] | IC50 ([4]; Table 4) [nM] | IC50 ([7]; Table 4) [nM] | IC50 ([10]; Table 4) [nM] | Structure (SMILES) | melting point [°C] | cytotoxic activity (in words) [11] | also measured
1 |  |  |  |  | COc1cc(C(=O)N/N=C/c2ccc(Cl)cc2)cc(OC)c1OC [Compound 5q, (E)-N′-(4-chlorobenzylidene)-3,4,5-trimetoxybenzohyidrazide] | 187 to 188 |  | IC50 ([1]; Table 2, MTT): 36 nM; SI Lymphocyte/ HL-60 [1, 12]: 1.85±0.15; IC50 [2]: 60 nM; SI Lymphocyte/ NCI-H358M [3, 12]: 0.05±0.005; IC50 ([3]; NCI-H358M, Table 2, MTT): 1060 nM; IC50 ([4]; Table 2, MTT): 72 nM; SI Lymphocyte/ SF-295 [4, 12]: 0.85±0.05; IC50 ([5]; Homo sapiens, OVCAR-8, Table 2, MTT): 24 nM; SI Lymphocyte/ OVCAR-8 [5, 12]: 2.75±0.25; IC50 ([6]; Homo sapiens, PC-3M, Table 2, MTT): 27.5 nM; SI Lymphocyte/ PC3M [6, 12]: 2.10±0.10; IC50 ([7]; Table 2, MTT): 18 nM; solubility at 2 h [8]: 28.4 µg/mL (≈ 81.4 µM); SI Lymphocyte/ MDA-MB345 [9]: 3.07±0.22; IC50 ([10]; Table 2, MTT): 46 nM; SI Lymphocyte/ HCT-8 [10, 12]: 1.25±0.05
2 | > 25000 | > 25000 | > 25000 | > 25000 | O=C(N/N=C/c1ccccc1)c1ccccc1 [Compound 9, (E)-N′-benzylidenebenzohydrazide] | 211 to 212 | loss of cytotoxic activity | 
3 | > 25000 | > 25000 | > 25000 | > 25000 | COc1cc(/C=N/NC(=O)c2ccccc2)cc(OC)c1OC [Compound 10, (E)-N′-(3,4,5-trimethoxybenzylidene)-benzohydrazide] | 211 to 212 | inactive | 

Row | Structure (SMILES) | IC50 ([1]; Table 4) [nM] | IC50 ([4]; Table 4) [nM] | IC50 ([7]; Table 4) [nM] | IC50 ([10]; Table 4) [nM] | melting point [°C] | cytotoxic activity (in words) [11] | also measured
4 | COc1cc(NC(=O)N/N=C/c2ccccc2)cc(OC)c1OC [Compound 12, (E)-2-benzylidene-N-(3,4,5-trimetoxyphenyl) hydrazinecarboxamide] | > 25000 | > 25000 | > 25000 | > 25000 | 217 | inactive | 
